Measurements from PubChem BioAssay AID192 (DTP/NCI, 2004).
Several values for one entry are separate records, joined by “and”; a condition that tells them apart may be missing. Equal values may be shown once. Inconclusive results and toxic doses are left out. Rule for the calls: active = survival T/C of 150% or more; inactive = T/C below 125% in these data. Peptide text beside a SMILES is read from it.

System: BDF1 mice, B16 melanoma ip, median survival T/C
Assay: NCI In Vivo Anticancer Drug Screen. Data for tumor model B16 Melanoma (intraperitoneal) in B6D2F1 (BDF1) mice
Conditions: endpoint: median survival time, higher = longer survival
Procedure, shortened: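 Transplantable tumor model; survival or tumor size measured; reported as T/C, treated over vehicle control.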

[1] = dose: 25.0 mg/kg/injection, schedule: Q01DX009 (ip), vehicle: Klucel (hydroxypropylcellulose) (HPC)
[2] = dose: 50.0 mg/kg/injection, schedule: Q01DX009 (ip), vehicle: Klucel (hydroxypropylcellulose) (HPC)
[3] = dose: 100.0 mg/kg/injection, schedule: Q01DX009 (ip), vehicle: Klucel (hydroxypropylcellulose) (HPC)
[4] = dose: 100.0 mg/kg/injection, schedule: Q01DX009 (ip), vehicle: saline with Tween-80
[5] = dose: 200.0 mg/kg/injection, schedule: Q01DX009 (ip), vehicle: saline with Tween-80
[6] = dose: 400.0 mg/kg/injection, schedule: Q01DX009 (ip), vehicle: saline with Tween-80
[7] = dose: 25.0 mg/kg/injection, schedule: Q01DX009 (ip), vehicle: saline with Tween-80
[8] = dose: 50.0 mg/kg/injection, schedule: Q01DX009 (ip), vehicle: saline with Tween-80
[9] = dose: 200.0 mg/kg/injection, schedule: Q01DX009 (ip), vehicle: Klucel (hydroxypropylcellulose) (HPC)
[10] = dose: 25.0 mg/kg/injection, schedule: Q01DX009 (ip), vehicle: saline
[11] = dose: 100.0 mg/kg/injection, schedule: Q04DX003 (ip), vehicle: Klucel (hydroxypropylcellulose) (HPC)
[12] = dose: 400.0 mg/kg/injection, schedule: Q01DX009 (ip), vehicle: Klucel (hydroxypropylcellulose) (HPC)
[13] = dose: 50.0 mg/kg/injection, schedule: Q01DX009 (ip), vehicle: saline

Measured: T/C

C=C(C)C12OC3(/C=C/C=C/CCCCC)OC1C1C4OC4(CO)C(O)C4(O)C(=O)C(C)=CC4C1(O3)C(C)C2OC(=O)c1ccccc1 (centres undefined)
inactive: dose: 0.5 micrograms/kg/injection, schedule: Q01DX009 (ip), vehicle: saline 104 % of control | dose: 1.0 micrograms/kg/injection, schedule: Q01DX009 (ip), vehicle: saline 104 % of control | dose: 1.9 micrograms/kg/injection, schedule: Q01DX009 (ip), vehicle: saline 105 % of control | dose: 3.8 micrograms/kg/injection, schedule: Q01DX009 (ip), vehicle: saline 104 % of control | dose: 7.5 micrograms/kg/injection, schedule: Q01DX009 (ip), vehicle: saline 97 % of control | dose: 15.0 micrograms/kg/injection, schedule: Q01DX009 (ip), vehicle: saline 104 % of control | dose: 30.0 micrograms/kg/injection, schedule: Q01DX009 (ip), vehicle: saline 98 % of control

COc1ccc(N2C(=O)CC(Sc3ccccc3N)C2=O)cc1 (centres undefined)
inactive: [1] 94 % of control | [2] 86 % of control | [3] 97 % of control

CC1=NN(c2ccccc2)C(=O)C1CC1C(=O)N(c2ccccc2)N=C1C (centres undefined)
inactive: [4] 95 % of control | [5] 95 % of control | [6] 89 % of control

CC(C)CNC(=O)c1ccc(N=NN(C)Cc2ccncc2)cc1
inactive: [7] 93 % of control | [8] 97 % of control | [4] 103 % of control

C=C1CC(OC(=O)C(C)(O)CCl)C2C(=C)C(=O)OC2C2C1CC(O)C2(O)CCl (centres undefined)
inactive: dose: 3.0 mg/kg/injection, schedule: Q01DX009 (ip), vehicle: Klucel (hydroxypropylcellulose) (HPC) 104 % of control | dose: 6.0 mg/kg/injection, schedule: Q01DX009 (ip), vehicle: Klucel (hydroxypropylcellulose) (HPC) 101 % of control | dose: 12.0 mg/kg/injection, schedule: Q01DX009 (ip), vehicle: Klucel (hydroxypropylcellulose) (HPC) 101 % of control | dose: 24.0 mg/kg/injection, schedule: Q01DX009 (ip), vehicle: Klucel (hydroxypropylcellulose) (HPC) 93 % of control

COc1ccc2nc3cc(Cl)ccc3c(Nc3ccc(O)c(CN(CCCl)CCCl)c3)c2c1
inactive: dose: 0.25 mg/kg/injection, schedule: Q01DX009 (ip), vehicle: saline 104 % of control | dose: 0.5 mg/kg/injection, schedule: Q01DX009 (ip), vehicle: saline 121 % of control | dose: 1.0 mg/kg/injection, schedule: Q01DX009 (ip), vehicle: saline 120 % of control

ClC1=C(Cl)C(Cl)(Cl)C(Cl)(Cl)C1(Cl)Cl
inactive: [3] 103 % of control

Cc1cc2no[n+]([O-])c2cc1C
inactive: [2] 116 % of control | [3] 99 % of control | [9] 117 % of control

CCN(CC)CCOC(=O)c1ccc(NC(=O)Nc2ccc(C(=O)OCCN(CC)CC)cc2)cc1
inactive: dose: 6.25 mg/kg/injection, schedule: Q01DX009 (ip), vehicle: saline 95 % of control | dose: 12.5 mg/kg/injection, schedule: Q01DX009 (ip), vehicle: saline 88 % of control | [7] 97 % of control | [10] 102 % of control | [8] 110 % of control | [4] 108 % of control

CCNc1nc(NCC)nc(OC)n1
inactive: [8] 117 % of control | dose: 66.0 mg/kg/injection, schedule: Q01DX009 (ip), vehicle: saline with Tween-80 93 % of control | [4] 95 % of control | dose: 150.0 mg/kg/injection, schedule: Q01DX009 (ip), vehicle: saline with Tween-80 93 % of control | [5] 105 % of control

Cc1c(C)c([N+](=O)[O-])c(Br)c(C)c1[N+](=O)[O-]
inactive: [11] 91 % of control | dose: 200.0 mg/kg/injection, schedule: Q04DX003 (ip), vehicle: Klucel (hydroxypropylcellulose) (HPC) 98 % of control

COC(=O)C1C2CC3c4[nH]c5cc(OC)ccc5c4CCN3CC2CC(OC2CCCCO2)C1OC (centres undefined)
inactive: dose: 0.19 mg/kg/injection, schedule: Q01DX009 (ip), vehicle: Klucel (hydroxypropylcellulose) (HPC) 112 % of control | dose: 0.39 mg/kg/injection, schedule: Q01DX009 (ip), vehicle: Klucel (hydroxypropylcellulose) (HPC) 104 % of control | dose: 0.78 mg/kg/injection, schedule: Q01DX009 (ip), vehicle: Klucel (hydroxypropylcellulose) (HPC) 103 % of control | dose: 0.78 mg/kg/injection, schedule: Q04DX003 (ip), vehicle: Klucel (hydroxypropylcellulose) (HPC) 91 % of control | dose: 1.56 mg/kg/injection, schedule: Q01DX009 (ip), vehicle: Klucel (hydroxypropylcellulose) (HPC) 101 % of control | dose: 1.56 mg/kg/injection, schedule: Q04DX003 (ip), vehicle: Klucel (hydroxypropylcellulose) (HPC) 90 % of control | dose: 3.12 mg/kg/injection, schedule: Q01DX009 (ip), vehicle: Klucel (hydroxypropylcellulose) (HPC) 111 % of control | dose: 3.12 mg/kg/injection, schedule: Q04DX003 (ip), vehicle: Klucel (hydroxypropylcellulose) (HPC) 96 % of control and 122 % of control | dose: 6.25 mg/kg/injection, schedule: Q04DX003 (ip), vehicle: Klucel (hydroxypropylcellulose) (HPC) 98 % of control | dose: 12.5 mg/kg/injection, schedule: Q04DX003 (ip), vehicle: Klucel (hydroxypropylcellulose) (HPC) 95 % of control and 111 % of control | dose: 25.0 mg/kg/injection, schedule: Q04DX003 (ip), vehicle: Klucel (hydroxypropylcellulose) (HPC) 113 % of control | dose: 50.0 mg/kg/injection, schedule: Q04DX003 (ip), vehicle: Klucel (hydroxypropylcellulose) (HPC) 111 % of control | [11] 100 % of control

O=C(O)c1ccccc1C(=O)O.[C-]#[O+].[C-]#[O+].[C-]#[O+].[C-]#[O+].[Rh].[Rh]
inactive: [3] 108 % of control | [9] 100 % of control | [12] 94 % of control

N=N/C(=C\c1c(O)[nH]c2ccccc12)c1ccccc1
inactive: [8] 98 % of control | [4] 105 % of control | [5] 98 % of control | [6] 89 % of control

CCC(=O)c1ccccc1N
inactive: [3] 97 % of control | [9] 98 % of control

CC(C)C1=CC2=CCC3C(C)(C(N)=O)CCCC3(C)C2CC1CC#N (centres undefined)
inactive: dose: 100.0 mg/kg/injection, schedule: Q04DX003 (ip), vehicle: saline with Tween-80 102 % of control | dose: 400.0 mg/kg/injection, schedule: Q04DX003 (ip), vehicle: saline with Tween-80 88 % of control

COc1cc2c(cc1OC)C13CCN4CC5=CCOC6CC(=O)N2C1C6C5CC43 (centres undefined) (tested in a mixture with another compound)
inactive: [1] 103 % of control | [2] 91 % of control

CN1CCC=C(CN2c3ccccc3Sc3ccccc32)C1
inactive: [10] 104 % of control | [13] 106 % of control

CC(C)CC(NC(=O)C(C)NC(=O)CN)C(=O)O (stereo not drawn) (H-Gly-Ala-Leu-OH; configuration not given here)
inactive: [8] 97 % of control | [4] 96 % of control | [5] 98 % of control | [6] 103 % of control

Cc1ccc(S(=O)(=O)N/N=C\c2cc(Cl)ccc2O)cc1
inactive: [3] 100 % of control | [9] 105 % of control | [12] 102 % of control

C1CC[N-]CC1.C1CC[N-]CC1.[Cl][Rh]([Cl])[Cl]
inactive: dose: 12.5 mg/kg/injection, schedule: Q01DX009 (ip), vehicle: saline with Tween-80 100 % of control | [7] 95 % of control | [8] 102 % of control | [4] 94 % of control | [5] 96 % of control

CC1=Nc2ccccc2/C1=C\c1c(C)[nH]c2ccccc12
inactive: [10] 110 % of control | [13] 113 % of control | dose: 100.0 mg/kg/injection, schedule: Q01DX009 (ip), vehicle: saline 121 % of control | dose: 200.0 mg/kg/injection, schedule: Q01DX009 (ip), vehicle: saline 97 % of control
